Reference: PMC4914250, “Cancer therapeutic approach based on conformational stabilization of mutant p53 protein by small peptides” (Oncotarget, 2016)

tested on: mutp53^R175H; experiment: ELISA of mutp53 DNA binding (p53RE oligonucleotide), H1299-p53^R175H cell extract; assay type: biochemical, human; details: H1299-p53^R175H extract, Figure 2B
Method: (§1) Cell extracts were added to ELISA plates coated with the indicated antibodies to allow mutp53 to react with the peptides and antibodies. αp53-HRP Ab was used for assessment of p53 levels. Numbers represent ratio of absorbance between the PAb1620 and PAb240 samples. All reads were normalized to the control […] reading of each extract. MCF7 (WTp53) and H1299-mutp53^A135V (tsp53) cells were used as positive controls for the WTp53 conformation (1620/240 ratio equals or exceeds 5:1). […] 96 well plates were coated with anti-p53 antibody, cell extracts containing p53 were reacted with oligonucleotides that contain a p53RE consensus binding site, labeled with biotin, in the presence or absence (NT) of test peptides. Streptavidin-HRP is used to quantify the amount of oligos in the well. TMB assay was performed to determine bound mutp53 levels (450nm). MCF7 and the H1299-mutp53^A135V(TS) cells serve as positive controls for WTp53. C.and D. - Bar graphs illustrating the effect of various selected peptides on mut-p53 dependent expression on cell viability. […] D, ES2 cells expressing endogenous mutp53 (blue bars) and ES2 cells knocked out for p53 by CRISPR construct (light blue bars). Cell lines were treated with selected peptides, Cis-platinum was used as positive control for cell death. 48 hours after treatment, cells were washed with PBS, and the remaining attached cells were stained with Crystal violet and washed 4 times with PBS. Stained cells were dissolved in 10% acetic acid and plates were taken for optical density measurement at […]. TEXT PRINTED IN THE PICTURE: (A) pCAP1: 0.87 | (A) pCAP2: 0.53 | (A) pCAP3: 0.59 | (A) pCAP4: 0.59 | (A) pCAP5: 0.60 | (A) pCAP6: 0.75 | (A) pCAP23: 1.06 | (A) pCAP24: 1.44 | (A) pCAP36: 1.25 | (A) pCAP47: 1.54 | (A) pCAP54: 1.54 | (A) pCAP60: 2.73 | (A) pCAP68: 2.22 | (A) pCAP83: 1.56 | (A) pCAP97: 2.45 DOUBTS OF THE COPYIST ABOUT THIS PICTURE: Panel A: the numbers over the bars are printed very small, rotated and blurred, so 3, 5, 6, 8 and 9 cannot be told apart with certainty. All values are best readings: pCAP1 0.87, pCAP2 0.53, pCAP3 0.59, pCAP4 0.59, pCAP5 0.60, pCAP6 0.75, pCAP23 1.06, pCAP24 1.44, pCAP36 1.25, pCAP47 1.54, pCAP54 1.54, pCAP60 2.73, pCAP68 2.22, pCAP83 1.56, pCAP97 2.45 / Panel A: the picture prints no measure with the numbers over the bars, so they are given as bare numbers / Panel A: numbers are also printed over the controls, which are not substances and are left out of lines. Best readings: NT 0.60, 60° 30'' 0.48, 60° 1' 0.37, 60° 3' 0.13, 60° 10' 0.05, MCF7 3.32, H1299TS 3.25
Next, we assessed the ability of our selected peptides to restore sequence-specific DNA binding to mutp53. To that end we employed an ELISA kit (R&D) in which cell extracts containing p53 are reacted with a biotinylated p53RE oligonucleotide and then incubated in wells coated with anti-p53 antibody, which is expected to trap the p53 protein and its associated p53RE DNA. The amount of p53RE retained in each well via p53 binding is quantified by incubation with streptavidin-HRP. […] Again, extracts of MCF7 and H1299-tsp53^A135V cells served as positive controls for WTp53 DNA binding activity. […] Importantly, there was substantial overlap between the peptides that stabilized the WT conformation (Figure 2A) and those that increased specific DNA binding (Figure 2B), further reinforcing the conclusion that those peptides stabilize mutp53 in a functional state. This was not seen with the randomly selected peptides 1-6 (black bars).
For these experiments, a commercial p53/DNA binding kit of “R&D” (Cat-DYC1355-5 Lot-1273366FA) was used, in accordance with manufacturer guide lines. Briefly, 96 well plates we coated with anti-p53 antibody overnight. Cell extracts containing p53 are reacted with an oligonucleotide that contains a p53 consensus binding site (provided in the kit), labeled with Biotin, in the presence or absence (NT) of test peptides. […]

Substance | binding of mutp53 to the p53RE
SFILFIRRGRLG [pCAP-60] | marked increase
IRGRIIR [pCAP-54] | marked increase
YRRLLIGMMWRRRRRRRRR [pCAP-68] | marked increase
WNHHHSTPHPAH [pCAP-97] | marked increase

same assay, conditions: score 0-6 compared to positive control; mutp53 DNA binding

Substance | DNA H1299
myr-PRVLPSPHTIHPSQYP [pCAP-229, myristoylated peptide, similarity to HIPK2] | 4
SFILFIRRGRLGRRRRRRRRR [pCAP-60R, pCAP-60 with poly arginine tail] | 3
WNHHHSTPHPAHRRRRRR [pCAP-97R, pCAP-97 with poly arginine tail] | 4
myr-RRLIVRILKLPNPPER [pCAP-242] | 4
myr-RRKHNKHRPEPDSDER [pCAP-221] | 2
IRGRIIRRRRRRRRR [pCAP-54R, pCAP-54 with poly arginine tail] | 2
myr-RRIRDPRILLLHFD [pCAP-325] | 4
SFILFIRRGRLG [pCAP-60] | 3
IRGRIIR [pCAP-54] | 2
YRRLLIGMMWRRRRRRRRR [pCAP-68] | 3
WNHHHSTPHPAH [pCAP-97] | 4

tested on: ES2 ovarian cancer cells; experiment: Crystal violet viability assay, ES2; assay type: cell-based, human; design: key to Viability ES2: score 0- no effect-white; score 6- as or more effective than positive control- black; details: ES2 (mp53^S241F) versus ES2 p53KO, 48 h
Method: as §1
(§2) We also performed a similar analysis on ES2 ovarian cancer cells, which express endogenous mp53^S241F, compared to ES2 cells in which p53 was stably knocked out using CRISPR/Cas9 (ES2 p53KO Figure S1F), to control for specificity for mutp53 (Figure 2D). In ES2 cells, too, some of the peptides caused a significant reduction in cell numbers, more prominent in the mutp53 expressing cells than in their p53KO counterparts. […] Overall, we performed this analysis on several different mutp53-expressing human cancer cell lines, and the results are summarized in Table S3. Based on this comprehensive picture, we reduced the number of most promising candidate lead peptides to 30. These peptides were then synthesized with an 8 arginine C-terminal tail for enhanced delivery across cell membranes (pCAPs 130-160); for clarity, peptides are referred to by their original number, with an R for poly arginine (see Table S3).
(§3) Cells were cultured in 96 wells plates with 2500-4000 cells/well. Serial dilutions of different peptides were added and the plates incubated for additional 48 h at 37°C. Then medium was removed and cell viability was determined by staining the cells with crystal violet (0.05%) in methanol/PBS (1:5, v/v), for 10 min, followed by 3 washes with PBS. 10% acetic acid was added to each well for 10 min. OD was determined at 595 nm.

Substance | mutp53-specific effect on cell number, ES2
SFILFIRRGRLG [pCAP-60] | mutp53-specific effect
IRGRIIR [pCAP-54] | mutp53-specific effect
WNHHHSTPHPAH [pCAP-97] | mutp53-specific effect

same assay, conditions: score 0-6 compared to positive control, 48 h

Substance | Viability ES2
SFILFIRRGRLGRRRRRRRRR [pCAP-60R, pCAP-60 with poly arginine tail] | 3
WNHHHSTPHPAHRRRRRR [pCAP-97R, pCAP-97 with poly arginine tail] | 4
myr-RRLIVRILKLPNPPER [pCAP-242] | 5
myr-RRKHNKHRPEPDSDER [pCAP-221] | 6
IRGRIIRRRRRRRRR [pCAP-54R, pCAP-54 with poly arginine tail] | 3
myr-RRIRDPRILLLHFD [pCAP-325] | 4
SFILFIRRGRLG [pCAP-60] | 3
YRRLLIGMMWRRRRRRRRR [pCAP-68] | 5
WNHHHSTPHPAH [pCAP-97] | 3

tested on: MDA; experiment: Crystal violet viability assay, MDA; assay type: cell-based, human; details: score 0-6 compared to positive control, 48 h
Description: as §2, §3

Substance | Viability MDA
WNHHHSTPHPAHRRRRRR [pCAP-97R, pCAP-97 with poly arginine tail] | 4
myr-RRLIVRILKLPNPPER [pCAP-242] | 3
myr-RRKHNKHRPEPDSDER [pCAP-221] | 5
IRGRIIRRRRRRRRR [pCAP-54R, pCAP-54 with poly arginine tail] | 4
myr-RRIRDPRILLLHFD [pCAP-325] | 4
IRGRIIR [pCAP-54] | 4
YRRLLIGMMWRRRRRRRRR [pCAP-68] | 4
WNHHHSTPHPAH [pCAP-97] | 4

tested on: EP156; experiment: Crystal violet viability assay, EP156; assay type: cell-based; design: key: score 0- no effect-white; score 6- as or more effective than positive control- black; details: score 0-6 compared to positive control, 48 h
Description: as §2, §3

Substance | Viability EP156
myr-PRVLPSPHTIHPSQYP [pCAP-229, myristoylated peptide, similarity to HIPK2] | 3
SFILFIRRGRLGRRRRRRRRR [pCAP-60R, pCAP-60 with poly arginine tail] | 2
WNHHHSTPHPAHRRRRRR [pCAP-97R, pCAP-97 with poly arginine tail] | 4
myr-RRLIVRILKLPNPPER [pCAP-242] | 6
myr-RRKHNKHRPEPDSDER [pCAP-221] | 5
IRGRIIRRRRRRRRR [pCAP-54R, pCAP-54 with poly arginine tail] | 4
myr-RRIRDPRILLLHFD [pCAP-325] | 4
SFILFIRRGRLG [pCAP-60] | 4
IRGRIIR [pCAP-54] | 4
YRRLLIGMMWRRRRRRRRR [pCAP-68] | 3
WNHHHSTPHPAH [pCAP-97] | 3

tested on: H1299 cells expressing mutp53^R175H; experiment: Crystal violet viability assay, H1299; assay type: cell-based; details: H1299 mutp53^R175H versus p53-null, 48 h
Method: Cell extracts were added to ELISA plates coated with the indicated antibodies to allow mutp53 to react with the peptides and antibodies. αp53-HRP Ab was used for assessment of p53 levels. Numbers represent ratio of absorbance between the PAb1620 and PAb240 samples. All reads were normalized to the control PAb241 reading of each extract. MCF7 (WTp53) and H1299-mutp53^A135V (tsp53) cells were used as positive controls for the WTp53 conformation (1620/240 ratio equals or exceeds 5:1). […] 96 well plates were coated with anti-p53 antibody, cell extracts containing p53 were reacted with oligonucleotides that contain a p53RE consensus binding site, labeled with biotin, in the presence or absence (NT) of test peptides. Streptavidin-HRP is used to quantify the amount of oligos in the well. TMB assay was performed to determine bound mutp53 levels (450nm). MCF7 and the H1299-mutp53^A135V(TS) cells serve as positive controls for WTp53. C.and D. - Bar graphs illustrating the effect of various selected peptides on mut-p53 dependent expression on cell viability. […] D, ES2 cells expressing endogenous mutp53 (blue bars) and ES2 cells knocked out for p53 by CRISPR construct (light blue bars). Cell lines were treated with selected peptides, Cis-platinum was used as positive control for cell death. 48 hours after treatment, cells were washed with PBS, and the remaining attached cells were stained with Crystal violet and washed 4 times with PBS. Stained cells were dissolved in 10% acetic acid and plates were taken for optical density measurement at 595nM.
This simple assay measures the total number of cells, thus reflecting the combination of both cell death and growth arrest effects. […] After 48 hours of treatment cells were stained with crystal violet and OD at 595nm was determined.
Values on the Y-axis reflect the number of cells in the treated wells, normalized to the non-treated samples (NT; red bars).

Substance | mutp53-specific effect on cell number, H1299
SFILFIRRGRLG [pCAP-60] | mutp53-specific effect
IRGRIIR [pCAP-54] | mutp53-specific effect
WNHHHSTPHPAH [pCAP-97] | mutp53-specific effect

same assay, conditions: score 0-6 compared to positive control, 48 h

Substance | Viability H1299
myr-PRVLPSPHTIHPSQYP [pCAP-229, myristoylated peptide, similarity to HIPK2] | 4
SFILFIRRGRLGRRRRRRRRR [pCAP-60R, pCAP-60 with poly arginine tail] | 2
WNHHHSTPHPAHRRRRRR [pCAP-97R, pCAP-97 with poly arginine tail] | 4
myr-RRLIVRILKLPNPPER [pCAP-242] | 5
myr-RRKHNKHRPEPDSDER [pCAP-221] | 2
IRGRIIRRRRRRRRR [pCAP-54R, pCAP-54 with poly arginine tail] | 2
myr-RRIRDPRILLLHFD [pCAP-325] | 5
SFILFIRRGRLG [pCAP-60] | 2
YRRLLIGMMWRRRRRRRRR [pCAP-68] | 3
WNHHHSTPHPAH [pCAP-97] | 3

tested on: H23; experiment: Crystal violet viability assay, H23; assay type: cell-based, human; design: key: score 0- no effect-white; score 6- as or more effective than positive control- black; details: score 0-6 compared to positive control, 48 h
Description: as §2, §3

Substance | Viability H23
myr-PRVLPSPHTIHPSQYP [pCAP-229, myristoylated peptide, similarity to HIPK2] | 3
SFILFIRRGRLGRRRRRRRRR [pCAP-60R, pCAP-60 with poly arginine tail] | 4
myr-RRLIVRILKLPNPPER [pCAP-242] | 6
myr-RRKHNKHRPEPDSDER [pCAP-221] | 6
myr-RRIRDPRILLLHFD [pCAP-325] | 4
